Data taken from patent US20120115845A1, “THERAPEUTIC AGENTS” (priority 2007, published 2012).

Tests used:
[1] = target: T1, human GHS receptor (Homo sapiens, UniProt Q92847); assay: h bind IC50 (binding assay, Table 1); conditions: human receptor; Table 1
[2] = target: T1, human GHS receptor; assay: Ghrelin IP1 agonist assay (IP1 HTRF); format: cell-based; set-up: expressed in transfected cells; host or cells: HEK293s; conditions: for Emax: 2 h, agonist effect as % maximal effect of GHRP-6 (5 μM), read-out: h IP1 ag %; for EC50: HEK293s cells stably expressing human GHS receptor, 2 hours at 37° C., read-out: h IP1 ag EC50
In short: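 Cells: HEK293s stably expressing human GHS receptor, in stimulation buffer containing 0.02% fatty acid free BSA.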

T1 sequence (Q92847 whole entry): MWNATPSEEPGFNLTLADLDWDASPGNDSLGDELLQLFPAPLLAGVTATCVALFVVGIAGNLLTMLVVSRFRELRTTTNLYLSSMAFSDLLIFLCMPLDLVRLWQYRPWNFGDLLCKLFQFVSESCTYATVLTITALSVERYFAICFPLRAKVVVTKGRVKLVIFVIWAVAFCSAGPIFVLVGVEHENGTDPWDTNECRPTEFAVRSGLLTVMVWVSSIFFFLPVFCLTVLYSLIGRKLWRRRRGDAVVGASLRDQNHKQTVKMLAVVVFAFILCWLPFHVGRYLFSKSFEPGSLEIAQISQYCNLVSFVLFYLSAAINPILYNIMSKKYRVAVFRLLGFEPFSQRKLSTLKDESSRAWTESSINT

Question: Which IC50 [1] does the source give for CCc1ccccc1C(=O)NC(=O)Nc1nc2ccc(S(C)(=O)=O)cc2s1 [Example 141, 2-Ethyl-N-[(6-methylsulfonylbenzothiazol-2-yl)carbamoyl]benzamide] here?
Answer: 111 nM

Question: What about the Emax [2] of the same compound?
Answer: 22.7%

Question: And the EC50 [2]?
Answer: 184 nM

Question: Which IC50 [1] does the source give for CCN1CCCC(S(=O)(=O)c2ccc3nc(NC(=O)NC(=O)c4ccccc4Cl)sc3c2)C1 (stereo not drawn) [Example 142, 2-Chloro-N-[[6-[(1-ethyl-3-piperidyl)sulfonyl]benzothiazol-2-yl]carbamoyl]benzamide] here?
Answer: 851 nM

Question: And the Emax [2]?
Answer: 24.5%

Question: What about the EC50 [2] of the same compound?
Answer: 35.1 nM

Question: Which IC50 [1] does the source give for O=C(NC(=O)c1ccccc1Cl)Nc1nc2ccc(S(=O)(=O)CCCN3CCOCC3)cc2s1 [Example 146, 2-Chloro-N-[[6-(3-morpholin-4-ylpropylsulfonyl)benzothiazol-2-yl]carbamoyl]benzamide] here?
Answer: 269 nM

Question: And the Emax [2]?
Answer: 40.7%

Question: What about the EC50 [2] of the same compound?
Answer: 30 nM

Question: With O=C(NC(=O)c1ccccc1Cl)Nc1nc2ccc(S(=O)(=O)CCCCl)cc2s1 [Example 148, 2-Chloro-N-[[6-(3-chloropropylsulfonyl)benzothiazol-2-yl]carbamoyl]benzamide] as the compound, how does the IC50 [1] read?
Answer: 830 nM

Question: And the Emax [2]?
Answer: 17.7%

Question: And the EC50 [2]?
Answer: 52.9 nM

Question: O=C(NC(=O)c1ccccc1Cl)Nc1nc2ccc(S(=O)(=O)CCCN3CCS(=O)(=O)CC3)cc2s1 [Example 150, 2-Chloro-N-[[6-[3-(1,1-dioxo-1,4-thiazinan-4-yl)propylsulfonyl]benzothiazol-2-yl]carbamoyl]benzamide] was tested. Which IC50 [1] did it give?
Answer: 52.7 nM

Question: And the Emax [2]?
Answer: 33.4%

Question: What about the EC50 [2] of the same compound?
Answer: 30.9 nM

Question: What does the source list for O=C(NC(=O)c1ccccc1Cl)Nc1nc2ccc(S(=O)(=O)CCCNCC3CC3)cc2s1 [Example 151, 2-Chloro-N-[[6-[3-(cyclopropylmethylamino)propylsulfonyl]benzothiazol-2-yl]carbamoyl]benzamide]?
Answer: IC50 [1]: 10.8 nM; Emax [2]: 74.3%; EC50 [2]: 2.23 nM

Question: How did the IC50 [1] turn out when O=C(NC(=O)c1ccccc1Cl)Nc1nc2ccc(S(=O)(=O)CCCN3CCCCC3)cc2s1 [Example 152, 2-Chloro-N-[[6-[3-(1-piperidyl)propylsulfonyl]benzothiazol-2-yl]carbamoyl]benzamide] was run?
Answer: 19.1 nM

Question: What about the Emax [2] of the same compound?
Answer: 46.6%

Question: What about the EC50 [2] of the same compound?
Answer: 23.9 nM

Question: Which IC50 [1] does the source give for CCN(CC)CCCS(=O)(=O)c1ccc2nc(NC(=O)NC(=O)c3ccccc3Cl)sc2c1 [Example 153, 2-Chloro-N-[[6-(3-diethylaminopropylsulfonyl)benzothiazol-2-yl]carbamoyl]benzamide] here?
Answer: 12.5 nM

Question: And the Emax [2]?
Answer: 47%

Question: And the EC50 [2]?
Answer: 10.9 nM

Question: Which IC50 [1] does the source give for CN1CCN(CCCS(=O)(=O)c2ccc3nc(NC(=O)NC(=O)c4ccccc4Cl)sc3c2)CC1 [Example 155, 2-Chloro-N-[[6-[3-(4-methylpiperazin-1-yl)propylsulfonyl]benzothiazol-2-yl]carbamoyl]benzamide] here?
Answer: 1.2 nM

Question: And the Emax [2]?
Answer: 55.2%

Question: And the EC50 [2]?
Answer: 2.25 nM

Question: With O=C(NC(=O)c1ccccc1Cl)Nc1nc2ccc(S(=O)(=O)CCCNCCO)cc2s1 [Example 159, 2-Chloro-N-[[6-[3-(2-hydroxyethylamino)propylsulfonyl]benzothiazol-2-yl]carbamoyl]benzamide] as the compound, how does the IC50 [1] read?
Answer: 8.5 nM

Question: And the Emax [2]?
Answer: 51.6%

Question: And the EC50 [2]?
Answer: 17.6 nM

Question: Which results are given for CS(=O)(=O)c1ccc2nc(NC(=O)NC(=O)c3cc(Br)ccc3Cl)sc2c1 [Example 161, 5-Bromo-2-chloro-N-[(6-methylsulfonylbenzothiazol-2-yl)carbamoyl]benzamide]?
Answer: IC50 [1]: 105 nM; Emax [2]: 56%; EC50 [2]: 6.18 nM

Question: With CC(C)N1CCC(S(=O)(=O)c2ccc3nc(NC(=O)NC(=O)c4ccccc4Cl)sc3c2)C1 (stereo not drawn) [Example 162, 2-Chloro-N-[[6-(1-propan-2-ylpyrrolidin-3-yl)sulfonylbenzothiazol-2-yl]carbamoyl]benzamide] as the compound, how does the IC50 [1] read?
Answer: 296 nM

Question: And the Emax [2]?
Answer: 48.3%

Question: And the EC50 [2]?
Answer: 11.4 nM

Question: Which results are given for CCN1CCC[C@@H]1CS(=O)(=O)c1ccc2nc(NC(=O)NC(=O)c3ccccc3Cl)sc2c1 [Example 164, 2-Chloro-N-[[6-[[(2R)-1-ethylpyrrolidin-2-yl]methylsulfonyl]benzothiazol-2-yl]carbamoyl]benzamide]?
Answer: IC50 [1]: 174 nM; Emax [2]: 43.9%; EC50 [2]: 70.2 nM

Question: How did the IC50 [1] turn out when O=C(NC(=O)c1ccccc1Cl)Nc1nc2ccc(S(=O)(=O)C[C@H]3CCCN3)cc2s1 [Example 165, 2-Chloro-N-[[6-[[(2R)-pyrrolidin-2-yl]methylsulfonyl]benzothiazol-2-yl]carbamoyl]benzamide] was run?
Answer: 127 nM

Question: What about the Emax [2] of the same compound?
Answer: 49.4%

Question: And the EC50 [2]?
Answer: 67.1 nM

Question: For CN1CCCC(S(=O)(=O)c2ccc3nc(NC(=O)NC(=O)c4ccccc4Cl)sc3c2)C1 (stereo not drawn) [Example 166, 2-Chloro-N-[[6-[(1-methyl-3-piperidyl)sulfonyl]benzothiazol-2-yl]carbamoyl]benzamide], which IC50 [1] is on record?
Answer: 280 nM

Question: What about the Emax [2] of the same compound?
Answer: 53.9%

Question: What about the EC50 [2] of the same compound?
Answer: 46.4 nM

Question: For CC(C)N1CCC[C@@H]1CS(=O)(=O)c1ccc2nc(NC(=O)NC(=O)c3ccccc3Cl)sc2c1 [Example 168, 2-Chloro-N-[[6-[[(2R)-1-propan-2-ylpyrrolidin-2-yl]methylsulfonyl]benzothiazol-2-yl]carbamoyl]benzamide], which IC50 [1] is on record?
Answer: 20.6 nM

Question: And the Emax [2]?
Answer: 37%

Question: What about the EC50 [2] of the same compound?
Answer: 4.13 nM

Question: For CS(=O)(=O)c1ccc2nc(NC(=O)NC(=O)c3ccccc3C(F)(F)F)sc2c1 [Example 170, N-[(6-Methylsulfonylbenzothiazol-2-yl)carbamoyl]-2-(trifluoromethyl)benzamide], which IC50 [1] is on record?
Answer: 831 nM

Question: What about the Emax [2] of the same compound?
Answer: 9.73%

Question: And the EC50 [2]?
Answer: 75.7 nM

Question: For O=C(NC(=O)c1ccccc1Cl)Nc1nc2ccc(S(=O)(=O)[C@H]3CCNC3)cc2s1 [Example 171, 2-Chloro-N-[[6-[(3S)-pyrrolidin-3-yl]sulfonylbenzothiazol-2-yl]carbamoyl]benzamide], which IC50 [1] is on record?
Answer: 296 nM

Question: And the Emax [2]?
Answer: 44%

Question: What about the EC50 [2] of the same compound?
Answer: 18.6 nM

Question: O=C(NC(=O)c1ccccc1Cl)Nc1nc2ccc(S(=O)(=O)[C@@H]3CCNC3)cc2s1 [Example 172, 2-Chloro-N-[[6-[(3R)-pyrrolidin-3-yl]sulfonylbenzothiazol-2-yl]carbamoyl]benzamide] was tested. Which IC50 [1] did it give?
Answer: 28.3 nM

Question: What about the Emax [2] of the same compound?
Answer: 44.4%

Question: And the EC50 [2]?
Answer: 7.31 nM

Question: With CCN1CCC(S(=O)(=O)c2ccc3nc(NC(=O)NC(=O)c4ccccc4Cl)sc3c2)CC1 [Example 173, 2-Chloro-N-[[6-[(1-ethyl-4-piperidyl)sulfonyl]benzothiazol-2-yl]carbamoyl]benzamide] as the compound, how does the IC50 [1] read?
Answer: 76.2 nM

Question: And the Emax [2]?
Answer: 52.2%

Question: And the EC50 [2]?
Answer: 8.43 nM

Question: Which results are given for O=C(NC(=O)c1ccccc1Cl)Nc1nc2ccc(S(=O)(=O)C3CN(CC4CC4)C3)cc2s1 [Example 175, 2-Chloro-N-[[6-[1-(cyclopropylmethyl)azetidin-3-yl]sulfonylbenzothiazol-2-yl]carbamoyl]benzamide]?
Answer: IC50 [1]: 64.1 nM; Emax [2]: 30.1%; EC50 [2]: 22.4 nM

Question: With CS(=O)(=O)c1ccc2nc(NC(=O)NC(=O)c3cc(F)c(F)cc3Cl)sc2c1 [Example 177, 2-Chloro-4,5-difluoro-N-[(6-methylsulfonylbenzothiazol-2-yl)carbamoyl]benzamide] as the compound, how does the IC50 [1] read?
Answer: 248 nM

Question: What about the Emax [2] of the same compound?
Answer: 22.8%

Question: And the EC50 [2]?
Answer: 66.4 nM

Question: What does the source list for O=C(NC(=O)c1ccccc1Cl)Nc1nc2ccc(S(=O)(=O)Cc3ccccn3)cc2s1 [Example 178, 2-Chloro-N-[[6-(pyridin-2-ylmethylsulfonyl)benzothiazol-2-yl]carbamoyl]benzamide]?
Answer: IC50 [1]: 108 nM; Emax [2]: 18.7%; EC50 [2]: 77.7 nM

Question: For CS(=O)(=O)c1ccc2nc(NC(=O)NC(=O)c3ccc(Cl)cc3Cl)sc2c1 [Example 179, 2,4-Dichloro-N-[(6-methylsulfonylbenzothiazol-2-yl)carbamoyl]benzamide], which IC50 [1] is on record?
Answer: 18.3 nM

Question: What about the Emax [2] of the same compound?
Answer: 61.2%

Question: And the EC50 [2]?
Answer: 5.91 nM

Question: With CS(=O)(=O)c1ccc2nc(NC(=O)NC(=O)c3ccc([N+](=O)[O-])cc3Cl)sc2c1 [Example 180, 2-Chloro-N-[(6-methylsulfonylbenzothiazol-2-yl)carbamoyl]-4-nitro-benzamide] as the compound, how does the IC50 [1] read?
Answer: 127 nM

Question: And the Emax [2]?
Answer: 5.93%

Question: What about the EC50 [2] of the same compound?
Answer: 67.3 nM

Question: How did the IC50 [1] turn out when CS(=O)(=O)c1ccc2nc(NC(=O)NC(=O)c3cc(C(F)(F)F)ccc3Cl)sc2c1 [Example 181, 2-Chloro-N-[(6-methylsulfonylbenzothiazol-2-yl)carbamoyl]-5-(trifluoromethyl)benzamide] was run?
Answer: 49 nM

Question: What about the Emax [2] of the same compound?
Answer: 54.4%

Question: What about the EC50 [2] of the same compound?
Answer: 0.633 nM

Question: For O=C(NC(=O)c1ccccc1Cl)Nc1nc2ccc(S(=O)(=O)C3CCN(CC4CC4)CC3)cc2s1 [Example 182, 2-Chloro-N-[[6-[[1-(cyclopropylmethyl)-4-piperidyl]sulfonyl]benzothiazol-2-yl]carbamoyl]benzamide], which IC50 [1] is on record?
Answer: 8.9 nM

Question: And the Emax [2]?
Answer: 39.6%

Question: And the EC50 [2]?
Answer: 25.1 nM

Question: For O=C(NC(=O)c1ccccc1Cl)Nc1nc2ccc(S(=O)(=O)C3CNC3)cc2s1 [Example 183, N-[[6-(Azetidin-3-ylsulfonyl)benzothiazol-2-yl]carbamoyl]-2-chloro-benzamide], which IC50 [1] is on record?
Answer: 6.7 nM

Question: What about the Emax [2] of the same compound?
Answer: 42.1%

Question: What about the EC50 [2] of the same compound?
Answer: 13.8 nM

Question: How did the IC50 [1] turn out when CCN1CC(S(=O)(=O)c2ccc3nc(NC(=O)NC(=O)c4ccccc4Cl)sc3c2)C1 [Example 185, 2-Chloro-N-[[6-(1-ethylazetidin-3-yl)sulfonylbenzothiazol-2-yl]carbamoyl]benzamide] was run?
Answer: 66.9 nM

Question: And the Emax [2]?
Answer: 39.7%

Question: And the EC50 [2]?
Answer: 69.2 nM

Question: For O=C(NC(=O)c1ccccc1Cl)Nc1nc2ccc(S(=O)(=O)Cc3cccnc3)cc2s1 [Example 187, 2-Chloro-N-[[6-(pyridin-3-ylmethylsulfonyl)benzothiazol-2-yl]carbamoyl]benzamide], which IC50 [1] is on record?
Answer: 58.1 nM

Question: And the Emax [2]?
Answer: 16.1%

Question: What about the EC50 [2] of the same compound?
Answer: 5.95 nM

Question: Cc1cc(CS(=O)(=O)c2ccc3nc(NC(=O)NC(=O)c4ccccc4Cl)sc3c2)no1 [Example 188, 2-Chloro-N-[[6-[(5-methyl-1,2-oxazol-3-yl)methylsulfonyl]benzothiazol-2-yl]carbamoyl]benzamide] was tested. Which IC50 [1] did it give?
Answer: 53.8 nM

Question: And the Emax [2]?
Answer: 16.4%

Question: And the EC50 [2]?
Answer: 52.1 nM
